The target of experiment [1] is Proto-oncogene tyrosine-protein kinase receptor Ret (Homo sapiens, UniProt P07949).
Description: Inhibition of Ret by cellular assay
The target of the next experiment is Ephrin type-B receptor 4 (Homo sapiens, UniProt P54760). Put plainly: Inhibition of EphB4 by cellular assay.
A further experiment concerns the target Angiopoietin-1 receptor (Homo sapiens, UniProt Q02763).
For experiment [2], the target named is Fibroblast growth factor receptor 3 (Homo sapiens, UniProt P22607).
The next experiment concerns the target Insulin receptor (Homo sapiens, UniProt P06213).
For experiment [3], the target named is Vascular endothelial growth factor receptor 1 (Homo sapiens, UniProt P17948).
Description: Inhibition of Flt1 by cellular assay
Experiment [4] has as its target Platelet-derived growth factor receptor alpha (Homo sapiens, UniProt P16234).
Description: Inhibition of PDGFRalpha by cellular assay
The target of experiment [5] is T1, Vascular endothelial growth factor receptor 2 (Homo sapiens, UniProt P35968).
Description: Inhibition of KDR by cellular assay
Experiment [6] deals with Tyrosine-protein kinase ZAP-70 (Homo sapiens, UniProt P43403). Put plainly: Inhibition of ZAP70 by cellular assay.
The target in experiment [7] is ALK tyrosine kinase receptor (Homo sapiens, UniProt Q9UM73).
Description: Inhibition of ALK by cellular assay
Experiment [8] deals with Non-receptor tyrosine-protein kinase TYK2 (Homo sapiens, UniProt P29597). Put plainly: Inhibition of Tyk2 by cellular assay.
The target in experiment [9] is Receptor-type tyrosine-protein kinase FLT3 (Homo sapiens, UniProt P36888).
Description: Inhibition of FLT3 by cellular assay
Experiment [10] has as its target Fibroblast growth factor receptor 1 (Homo sapiens, UniProt P11362).
Description: Inhibition of FGFR1 by cellular assay
The target of experiment [11] is Hepatocyte growth factor receptor (Homo sapiens, UniProt P08581). The experiment in a line: Inhibition of Met by cellular assay.
The target of experiment [12] is Tyrosine-protein kinase Lck (Homo sapiens, UniProt P06239).
Description: Inhibition of Lck by cellular assay
The target of experiment [13] is Platelet-derived growth factor receptor beta (Homo sapiens, UniProt P09619).
Description: Inhibition of PDGFRbeta by cellular assay
The next experiment concerns the target Ephrin type-A receptor 3 (Homo sapiens, UniProt P29320). Put plainly: Inhibition of EphA3 by cellular assay.
Experiment [14] concerns the target Proto-oncogene tyrosine-protein kinase Src (Homo sapiens, UniProt P12931). The experiment in a line: Inhibition of Src by cellular assay. It is filed as functional.
Experiment [15] has as its target Macrophage-stimulating protein receptor (Homo sapiens, UniProt Q04912).
For experiment [16], the target named is Mast/stem cell growth factor receptor Kit (Homo sapiens, UniProt P10721).
Description: Inhibition of c-Kit by cellular assay
Experiment [17] deals with High affinity nerve growth factor receptor (Homo sapiens, UniProt P04629).
Experiment [18] in a line: Cytotoxicity against human Hs 707(A).T cells assessed as fraction of viable cells after 72 hrs relative to control. It is filed as functional.
A short description of experiment [19]: Cytotoxicity against human G-292 Clone A141B1 cells assessed as fraction of viable cells after 72 hrs relative to control. It is filed as functional.
For a further experiment, the system named is IMR-90. Put plainly: Cytotoxicity against human IMR90 cells assessed as fraction of viable cells after 72 hrs relative to control. In kind it is functional.
Another experiment relates to SNU-5. Put plainly: Cytotoxicity against human SNU5 cells assessed as fraction of viable cells after 72 hrs relative to control. It is filed as functional.
For the next experiment, the system named is MG-63. Put plainly: Cytotoxicity against human MG63 cells assessed as fraction of viable cells after 72 hrs relative to control. In kind it is functional.
Another experiment deals with SNU1. The experiment in a line: Cytotoxicity against human SNU1 cells assessed as fraction of viable cells after 72 hrs relative to control. It is filed as functional.
In experiment [20] the target is T1, Vascular endothelial growth factor receptor 2. The source holds these as a separate data set.
Description: Inhibition of VEGFR2 by cellular assay
Experiment [21] can be described thus: Inhibition of PDGF.
A short description of experiment [22]: Inhibition of Mek.

Some results are limits rather than exact numbers.

T1 sequence (P35968 whole entry): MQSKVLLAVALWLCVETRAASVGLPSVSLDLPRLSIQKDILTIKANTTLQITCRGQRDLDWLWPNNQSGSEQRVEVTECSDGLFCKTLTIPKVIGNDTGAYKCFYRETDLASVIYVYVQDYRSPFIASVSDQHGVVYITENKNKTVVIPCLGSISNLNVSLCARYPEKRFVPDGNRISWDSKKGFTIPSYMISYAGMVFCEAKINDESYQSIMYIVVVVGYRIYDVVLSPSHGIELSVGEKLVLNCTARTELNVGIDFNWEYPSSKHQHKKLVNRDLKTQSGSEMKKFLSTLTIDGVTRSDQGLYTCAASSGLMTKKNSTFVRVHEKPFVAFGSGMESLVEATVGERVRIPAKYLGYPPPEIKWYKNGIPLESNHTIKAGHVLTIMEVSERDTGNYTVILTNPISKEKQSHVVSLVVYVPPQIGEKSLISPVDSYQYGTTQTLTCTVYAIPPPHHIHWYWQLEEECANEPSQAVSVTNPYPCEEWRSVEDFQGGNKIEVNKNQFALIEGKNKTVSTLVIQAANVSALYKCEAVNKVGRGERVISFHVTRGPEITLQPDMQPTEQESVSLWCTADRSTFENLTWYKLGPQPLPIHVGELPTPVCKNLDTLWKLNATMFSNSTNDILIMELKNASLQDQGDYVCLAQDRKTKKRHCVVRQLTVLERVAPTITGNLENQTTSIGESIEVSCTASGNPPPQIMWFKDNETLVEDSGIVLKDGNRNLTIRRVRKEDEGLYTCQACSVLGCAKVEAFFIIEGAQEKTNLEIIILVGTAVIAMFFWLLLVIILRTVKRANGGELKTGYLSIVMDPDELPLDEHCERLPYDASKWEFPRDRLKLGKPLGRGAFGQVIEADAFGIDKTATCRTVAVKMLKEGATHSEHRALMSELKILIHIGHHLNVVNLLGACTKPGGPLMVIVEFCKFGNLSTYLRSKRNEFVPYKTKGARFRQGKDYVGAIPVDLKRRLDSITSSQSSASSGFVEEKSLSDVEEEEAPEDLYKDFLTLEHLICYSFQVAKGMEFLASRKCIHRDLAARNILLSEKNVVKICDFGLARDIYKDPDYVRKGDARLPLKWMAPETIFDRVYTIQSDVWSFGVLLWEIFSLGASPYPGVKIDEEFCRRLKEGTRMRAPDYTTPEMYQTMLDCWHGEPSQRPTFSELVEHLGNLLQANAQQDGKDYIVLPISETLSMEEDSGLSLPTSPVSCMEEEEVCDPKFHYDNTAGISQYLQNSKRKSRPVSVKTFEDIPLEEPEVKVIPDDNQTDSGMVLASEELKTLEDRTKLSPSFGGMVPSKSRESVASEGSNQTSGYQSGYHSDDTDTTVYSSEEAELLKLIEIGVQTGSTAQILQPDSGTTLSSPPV
Chain of Hepatocyte growth factor receptor (P08581 whole entry): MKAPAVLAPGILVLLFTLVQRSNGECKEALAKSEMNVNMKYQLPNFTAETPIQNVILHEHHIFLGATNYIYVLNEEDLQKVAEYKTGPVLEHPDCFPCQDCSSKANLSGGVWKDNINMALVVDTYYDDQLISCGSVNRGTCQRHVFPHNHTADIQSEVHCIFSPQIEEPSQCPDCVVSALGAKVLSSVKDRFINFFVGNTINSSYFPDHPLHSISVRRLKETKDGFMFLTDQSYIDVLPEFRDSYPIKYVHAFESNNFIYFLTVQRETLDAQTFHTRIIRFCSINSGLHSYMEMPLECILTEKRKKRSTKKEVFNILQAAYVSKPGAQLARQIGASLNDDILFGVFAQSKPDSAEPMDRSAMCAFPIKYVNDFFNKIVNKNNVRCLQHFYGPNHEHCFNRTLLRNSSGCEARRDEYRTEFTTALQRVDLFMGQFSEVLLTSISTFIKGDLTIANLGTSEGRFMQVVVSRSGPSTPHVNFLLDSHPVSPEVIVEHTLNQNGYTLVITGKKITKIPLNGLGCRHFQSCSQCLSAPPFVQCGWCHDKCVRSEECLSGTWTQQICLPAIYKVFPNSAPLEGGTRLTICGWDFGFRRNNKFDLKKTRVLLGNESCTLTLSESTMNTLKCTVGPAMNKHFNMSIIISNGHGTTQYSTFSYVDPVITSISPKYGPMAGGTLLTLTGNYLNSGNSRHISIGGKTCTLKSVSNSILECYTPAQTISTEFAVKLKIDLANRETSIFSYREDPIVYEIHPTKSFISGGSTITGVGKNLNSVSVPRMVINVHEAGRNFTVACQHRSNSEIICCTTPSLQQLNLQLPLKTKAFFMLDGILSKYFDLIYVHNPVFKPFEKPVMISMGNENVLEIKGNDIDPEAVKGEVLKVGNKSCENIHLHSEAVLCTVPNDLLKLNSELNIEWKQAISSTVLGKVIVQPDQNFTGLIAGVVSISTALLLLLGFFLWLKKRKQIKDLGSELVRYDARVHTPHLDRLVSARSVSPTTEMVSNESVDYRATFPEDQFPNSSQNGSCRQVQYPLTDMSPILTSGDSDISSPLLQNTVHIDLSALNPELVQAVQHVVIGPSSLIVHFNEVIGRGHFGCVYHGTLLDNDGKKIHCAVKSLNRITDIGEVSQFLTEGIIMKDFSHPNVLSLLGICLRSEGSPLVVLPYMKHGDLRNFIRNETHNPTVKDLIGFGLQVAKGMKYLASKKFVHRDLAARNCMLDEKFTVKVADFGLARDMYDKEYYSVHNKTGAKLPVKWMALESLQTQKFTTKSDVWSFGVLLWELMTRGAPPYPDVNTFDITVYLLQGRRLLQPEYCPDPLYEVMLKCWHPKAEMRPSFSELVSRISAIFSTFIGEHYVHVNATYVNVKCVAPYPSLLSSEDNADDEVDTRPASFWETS
Chain of Fibroblast growth factor receptor 1 (P11362 whole entry): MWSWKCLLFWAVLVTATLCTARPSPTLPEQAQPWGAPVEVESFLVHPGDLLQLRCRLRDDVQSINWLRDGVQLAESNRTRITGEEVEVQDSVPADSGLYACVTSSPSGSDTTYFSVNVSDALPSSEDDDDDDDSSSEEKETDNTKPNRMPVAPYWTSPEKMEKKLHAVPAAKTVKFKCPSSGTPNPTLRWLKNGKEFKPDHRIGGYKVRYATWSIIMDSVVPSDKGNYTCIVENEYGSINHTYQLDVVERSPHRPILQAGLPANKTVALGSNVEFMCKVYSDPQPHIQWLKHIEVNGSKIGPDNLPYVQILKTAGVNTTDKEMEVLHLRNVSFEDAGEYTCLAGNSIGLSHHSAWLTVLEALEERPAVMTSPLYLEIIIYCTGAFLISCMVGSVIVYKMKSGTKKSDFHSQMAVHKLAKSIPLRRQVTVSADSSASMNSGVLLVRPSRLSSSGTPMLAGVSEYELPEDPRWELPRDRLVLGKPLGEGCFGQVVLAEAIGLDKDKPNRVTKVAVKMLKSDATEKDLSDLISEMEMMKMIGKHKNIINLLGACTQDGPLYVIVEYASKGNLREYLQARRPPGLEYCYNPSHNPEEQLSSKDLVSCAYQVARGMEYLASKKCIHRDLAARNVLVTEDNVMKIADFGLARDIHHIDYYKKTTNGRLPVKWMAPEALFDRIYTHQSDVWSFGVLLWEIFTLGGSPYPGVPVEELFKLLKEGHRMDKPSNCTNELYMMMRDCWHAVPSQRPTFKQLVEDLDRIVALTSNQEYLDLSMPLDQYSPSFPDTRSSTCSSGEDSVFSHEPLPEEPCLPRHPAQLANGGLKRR
Chain of Fibroblast growth factor receptor 3 (P22607 whole entry): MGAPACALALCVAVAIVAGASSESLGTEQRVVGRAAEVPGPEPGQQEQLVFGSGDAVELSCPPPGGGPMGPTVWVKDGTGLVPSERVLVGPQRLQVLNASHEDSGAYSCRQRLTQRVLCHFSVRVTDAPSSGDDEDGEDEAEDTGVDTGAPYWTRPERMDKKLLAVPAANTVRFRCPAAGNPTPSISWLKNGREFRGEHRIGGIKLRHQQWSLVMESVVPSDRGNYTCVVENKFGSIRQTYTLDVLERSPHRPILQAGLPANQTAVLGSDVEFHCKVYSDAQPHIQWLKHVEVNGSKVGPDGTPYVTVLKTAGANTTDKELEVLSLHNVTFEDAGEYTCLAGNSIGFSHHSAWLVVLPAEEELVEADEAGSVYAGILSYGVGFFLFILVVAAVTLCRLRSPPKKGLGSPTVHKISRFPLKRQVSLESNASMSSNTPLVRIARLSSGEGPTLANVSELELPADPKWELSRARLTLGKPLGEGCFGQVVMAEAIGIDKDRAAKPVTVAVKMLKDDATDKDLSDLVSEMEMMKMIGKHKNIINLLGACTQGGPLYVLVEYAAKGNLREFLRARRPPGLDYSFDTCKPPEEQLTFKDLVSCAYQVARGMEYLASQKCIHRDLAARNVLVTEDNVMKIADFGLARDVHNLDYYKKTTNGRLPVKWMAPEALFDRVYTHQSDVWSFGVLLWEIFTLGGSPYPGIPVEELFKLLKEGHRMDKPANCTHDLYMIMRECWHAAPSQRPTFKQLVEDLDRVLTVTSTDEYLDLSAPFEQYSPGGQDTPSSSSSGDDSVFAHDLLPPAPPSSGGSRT
Chain of Tyrosine-protein kinase ZAP-70 (P43403 whole entry): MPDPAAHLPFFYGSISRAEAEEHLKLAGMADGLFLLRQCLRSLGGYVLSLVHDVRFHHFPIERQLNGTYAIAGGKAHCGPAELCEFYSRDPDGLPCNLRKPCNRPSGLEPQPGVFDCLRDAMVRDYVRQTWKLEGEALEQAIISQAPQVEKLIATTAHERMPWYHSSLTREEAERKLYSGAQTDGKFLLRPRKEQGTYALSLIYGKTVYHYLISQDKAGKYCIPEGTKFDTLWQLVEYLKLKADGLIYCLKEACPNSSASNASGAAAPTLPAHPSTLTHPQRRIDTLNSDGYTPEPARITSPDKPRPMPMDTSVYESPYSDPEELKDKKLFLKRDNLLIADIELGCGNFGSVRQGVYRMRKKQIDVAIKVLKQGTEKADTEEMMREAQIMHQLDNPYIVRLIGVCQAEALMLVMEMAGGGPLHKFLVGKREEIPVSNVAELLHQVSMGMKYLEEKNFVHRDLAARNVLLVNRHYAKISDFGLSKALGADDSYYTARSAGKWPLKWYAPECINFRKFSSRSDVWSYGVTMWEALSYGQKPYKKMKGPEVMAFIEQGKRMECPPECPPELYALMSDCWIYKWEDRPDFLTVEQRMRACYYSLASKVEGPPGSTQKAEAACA
Description for Angiopoietin-1 receptor: Inhibition of Tie2 by cellular assay
Description for Insulin receptor: Inhibition of InsR by cellular assay
Description for cells: Inhibition of Bcr-abl by cellular assay

In general, EC50 refers to the concentration that produces a half-maximal response. Lower therefore signals greater potency. One may read the IC50 as the concentration at which inhibition is half-maximal. As for `Cc1ccc(NC(=O)c2cccc(C(F)(F)F)c2)cc1N1Cc2cnc(N)nc2N(C)C1=O`, the EC50 in experiment [1] was 77 nM; at Ephrin type-B receptor 4, 4 nM; in “cells”, 3 nM; on Angiopoietin-1 receptor, 200 nM; at Insulin receptor it was greater than 2000 nM; in [3], 236 nM. Further, the EC50 in experiment [4] is 4 nM; in experiment [5], 22 nM; in experiment [6] it was greater than 2000 nM; in [7], greater than 2000 nM; in [8] it was greater than 2000 nM; in [9] it was greater than 2000 nM. For the same compound, the EC50 is 80 nM in experiment [10]; greater than 2000 nM in [11]; 5 nM in experiment [12]; 6 nM in experiment [13]; 2 nM on Ephrin type-A receptor 3; 13 nM in [14]. Moreover, the EC50 is greater than 2000 nM in experiment [15], 4 nM in experiment [16] and greater than 2000 nM in [17]. Moreover, the IC50 in experiment [2] is 13 nM.

Consider `CC#CC(=O)Nc1ccc2ncnc(Nc3cccc(Br)c3)c2c1`, for which the Activity is recorded as 1.31 in experiment [18]; 1.024 in [19]; 0.854 with IMR-90; 1.244 in the experiment on SNU-5; 0.97 in the experiment with MG-63; 1.135 in the experiment with SNU1.

In experiment [20], `CCN(CC)CCCCNc1ncc2cc(-c3cc(OC)cc(OC)c3)c(NC(=O)NC(C)(C)C)nc2n1` [PD-173074] came in with an EC50 of 250 nM. The IC50 in experiment [21] was 19000 nM; in experiment [22] it was greater than 50000 nM.

The record behind these values is ChEMBL document CHEMBL1149823, “Identification of genotype-correlated sensitivity to selective kinase inhibitors by using high-throughput tumor cell line profiling” (Proc Natl Acad Sci U S A, 2007).
